The values below come from US9499492B2, “4-(ortho)-fluorophenyl-5-fluoropyrimidin-2-yl amines containing a sulfoximine group” (BAYER PHARMA AKTIENGESELLSCHAFT, priority 2012, dated 2016).

Structures are written as SMILES. Like-named read-outs stand apart in the source and are kept apart here.

Series [1] relates to HeLa, human cervical tumour cells. As to the kind of experiment: Proliferation assay, HeLa (Method 3). The note with it: 4 days, crystal violet, read-out: Inhibition of HeLa cell proliferation IC50. It is filed as cell-based. The method, boiled down:
(§1)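 Four-day compound treatment (0.001–10 μM, 0.5% DMSO final) began 24 h after seeding. Readout: crystal violet, 595 nm, referenced to a zero-point plate and vehicle wells.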

A short description of series [2]: In vitro metabolic stability in rat hepatocytes (Method 5). Format: in vitro ADME, Han Wistar rat. The note with it: 1 μM test compound. The method, then: 5. Investigation of In Vitro Metabolic Stability in Rat Hepatocytes
Hepatocytes from Han Wistar rats were isolated via a 2-step perfusion method. After perfusion, the liver was carefully removed from the rat: the liver capsule was opened and the hepatocytes were gently shaken out into a Petri dish with ice-cold Williams medium E (purchased from Sigma Aldrich Life Science, St Louis, Mo.). The resulting cell suspension was filtered through sterile gaze in 50 ml falcon tubes and centrifuged at 50×g for 3 min at room temperature. The cell pellet was resuspended in 30 ml WME and centrifuged through a Percoll® gradient for 2 times at 100×g. The hepatocytes were washed again with Williams' medium E (WMA) and resuspended in medium containing 5% Fetal calf serum (FCS, purchased from Invitrogen, Auckland, NZ). Cell viability was determined by trypan blue exclusion.
For the metabolic stability assay liver cells were distributed in WME containing 5% FCS to glass vials at a density of 1.0×10^6 vital cells/ml. The test compound was added to a final concentration of 1 μM. During incubation, the hepatocyte suspensions were continuously shaken and aliquots were taken at 2, 8, 16, 30, 45 and 90 min, to which equal volumes of cold acetonitrile were immediately added. Samples were frozen at −20° C. over night, after subsequently centrifuged for 15 minutes at 3000 rpm and the supernatant was analyzed with an Agilent 1200 HPLC-system with LCMS/MS detection.
The half-life of a test compound was determined from the concentration-time plot. From the half-life the intrinsic clearances were calculated. Together with the additional parameters liver blood flow, amount of liver cells in vivo and in vitro.

Series [3] has as its system A2780, human ovarian carcinoma cells. Put plainly: Proliferation assay, A2780 (Method 3). It is filed as cell-based. The conditions noted are these: A2780, 4 days, crystal violet, read-out: Inhibition of A2780 cell proliferation IC50. The method, boiled down:
as §1

Series [4] concerns MOLM-13 human acute myeloid leukemia cells. Put plainly: Proliferation assay, MOLM-13 (Cell Titre-Glo, Method 3). It is filed as cell-based. The conditions noted are these: MOLM-13, 72-hour exposure, read-out: Inhibition of MOLM-13 cell proliferation IC50. The method, then: Non-adherent MOLM-13 human acute myeloid leukemia cells (DSMZ ACC 554) were seeded at a density of 5,000 cells/well in a 96-well multititer plate in 100 μL of growth medium supplemented 10% fetal calf serum. After 24 hours, cell viability of one plate (zero-point plate) was determined with the Cell Titre-Glo Luminescent Cell Viability Assay (Promega), while 50 μL of test compound containing medium was added to the wells of the other plates (final concentrations in the range of 0.001-10 μM and DMSO controls; the final concentration of the solvent dimethyl sulfoxide was 0.5%). Cell viability was assessed after 72-hour exposure with the Cell Titre-Glo Luminescent Cell Viability Assay (Promega).

Series [5] concerns the target T1, CDK9/CycT1 (Homo sapiens (Human), UniProt P50750). Put plainly: CDK9/CycT1 kinase assay (Method 1a). The conditions noted are these: for Selectivity CDK9/CDK2: derived from Methods 1a. and 2.; for IC50: 10 μM ATP. It is filed as biochemical.
In series [6] the test system is Caco-2, human colorectal carcinoma cells. As to the kind of experiment: Proliferation assay, Caco-2 (Method 3). Format: cell-based. The conditions noted are these: Caco-2, 4 days, crystal violet, read-out: Inhibition of Caco-2 cell proliferation IC50. The procedure:
(§2) After 24 hours, the cells of one plate (zero-point plate) were stained with crystal violet (see below), while the medium of the other plates was replaced by fresh culture medium (200 μl), to which the test substances were added in various concentrations (0 μM, as well as in the range of 0.001-10 μM; the final concentration of the solvent dimethyl sulfoxide was 0.5%). The cells were incubated for 4 days in the presence of test substances. Cell proliferation was determined by staining the cells with crystal violet: the cells were fixed by adding 20 μl/measuring point of an 11% glutaric aldehyde solution for 15 minutes at room temperature. After three washing cycles of the fixed cells with water, the plates were dried at room temperature. The cells were stained by adding 100 μl/measuring point of a 0.1% crystal violet solution (pH 3.0). After three washing cycles of the stained cells with water, the plates were dried at room temperature. The dye was dissolved by adding 100 μl/measuring point of a 10% acetic acid solution. The extinction was determined by photometry at a wavelength of 595 nm. The change of cell number, in percent, was calculated by normalization of the measured values to the extinction values of the zero-point plate (=0%) and the extinction of the untreated (0 μm) cells (=100%).

Series [7] deals with HeLa-MaTu-ADR, multidrug-resistant human cervical carcinoma cells. Put plainly: Proliferation assay, HeLa-MaTu-ADR (Method 3). It is filed as cell-based. The note with it: 4 days, crystal violet, read-out: Inhibition of HeLa-MaTu-ADR cell proliferation IC50. The procedure:
as §2

The test system of series [8] is DU 145, hormone-independent human prostate carcinoma cells. As to the kind of experiment: Proliferation assay, DU 145 (Method 3). It is filed as cell-based. The conditions noted are these: DU145, 4 days, crystal violet, read-out: Inhibition of DU145 cell proliferation IC50. The procedure: as §2
Series [9] concerns NCI-H460, human non-small cell lung carcinoma cells. As to the kind of experiment: Proliferation assay, NCI-H460 (Method 3). The note with it: NCI-H460, 4 days, crystal violet, read-out: Inhibition of H460 cell proliferation IC50. Format: cell-based. The method, then: as §2
The target in series [10] is CDK2/CycE (Homo sapiens (Human), UniProt P24941). As to the kind of experiment: CDK2/CycE kinase assay (Method 2). It is filed as biochemical. The conditions noted are these: 10 μM ATP.
In series [11] the test system is B16F10, mouse melanoma cells. As to the kind of experiment: Proliferation assay, B16F10 (Method 3). It is filed as cell-based. The conditions noted are these: B16F10, 4 days, crystal violet, read-out: Inhibition of B16F10 cell proliferation IC50. The procedure:
as §2

Series [12] addresses T1, CDK9/CycT1. Put plainly: CDK9/CycT1 high ATP kinase assay (Method 1b). Format: biochemical. The note with it: 2 mM ATP. The method, then: 1b. CDK9/CycT1 High ATP Kinase Assay
CDK9/CycT1-inhibitory activity of compounds of the present invention at a high ATP concentration after preincubation of enzyme and test compounds was quantified employing the CDK9/CycT1 TR-FRET assay as described in the following paragraphs.
Recombinant full-length His-tagged human CDK9 and CycT1, expressed in insect cells and purified by Ni-NTA affinity chromatography, were purchase from Invitrogen (Cat. No PV4131). As substrate for the kinase reaction biotinylated peptide biotin-Ttds-[…] (C-terminus in amid form) was used which can be purchased e.g. form the company JERINI peptide technologies (Berlin, Germany).
For the assay 50 nl of a 100 fold concentrated solution of the test compound in DMSO was pipetted into a black low volume 384 well microtiter plate (Greiner Bio-One, Frickenhausen, Germany), 2 μl of a solution of CDK9/CycT1 in aqueous assay buffer [50 mM Tris/HCl pH 8.0, 10 mM MgCl2, 1.0 mM dithiothreitol, 0.1 mM sodium ortho-vanadate, 0.01% (v/v) Nonidet-P40 (Sigma)] were added and the mixture was incubated for 15 min at 22° C. to allow pre-binding of the test compounds to the enzyme before the start of the kinase reaction. […] The concentration of CDK9/CycT1 was adjusted depending of the activity of the enzyme lot and was chosen appropriate to have the assay in the linear range, typical concentrations were in the range of 0.5 μg/ml.
The resulting mixture was incubated 1 h at 22° C. to allow the formation of complex between the phosphorylated biotinylated peptide and the detection reagents. Subsequently the amount of phosphorylated substrate was evaluated by measurement of the resonance energy transfer from the Eu-chelate to the streptavidine-XL. Therefore, the fluorescence emissions at 620 nm and 665 nm after excitation at 350 nm was measured in a HTRF reader, e.g. a Rubystar (BMG Labtechnologies, Offenburg, Germany) or a Viewlux (Perkin-Elmer). The ratio of the emissions at 665 nm and at 622 nm was taken as the measure for the amount of phosphorylated substrate.

T1 sequence (P50750 whole entry): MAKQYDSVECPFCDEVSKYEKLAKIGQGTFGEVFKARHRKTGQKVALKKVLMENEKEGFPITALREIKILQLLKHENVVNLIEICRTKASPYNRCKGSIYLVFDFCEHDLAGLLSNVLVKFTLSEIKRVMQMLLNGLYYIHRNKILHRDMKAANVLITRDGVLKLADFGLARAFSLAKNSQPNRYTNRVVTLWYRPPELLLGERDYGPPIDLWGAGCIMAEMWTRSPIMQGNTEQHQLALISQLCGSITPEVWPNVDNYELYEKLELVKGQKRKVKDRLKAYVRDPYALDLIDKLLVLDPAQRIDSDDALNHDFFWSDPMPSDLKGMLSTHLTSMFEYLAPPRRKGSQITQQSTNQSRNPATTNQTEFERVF
T1 sequence (O60563 whole entry partner): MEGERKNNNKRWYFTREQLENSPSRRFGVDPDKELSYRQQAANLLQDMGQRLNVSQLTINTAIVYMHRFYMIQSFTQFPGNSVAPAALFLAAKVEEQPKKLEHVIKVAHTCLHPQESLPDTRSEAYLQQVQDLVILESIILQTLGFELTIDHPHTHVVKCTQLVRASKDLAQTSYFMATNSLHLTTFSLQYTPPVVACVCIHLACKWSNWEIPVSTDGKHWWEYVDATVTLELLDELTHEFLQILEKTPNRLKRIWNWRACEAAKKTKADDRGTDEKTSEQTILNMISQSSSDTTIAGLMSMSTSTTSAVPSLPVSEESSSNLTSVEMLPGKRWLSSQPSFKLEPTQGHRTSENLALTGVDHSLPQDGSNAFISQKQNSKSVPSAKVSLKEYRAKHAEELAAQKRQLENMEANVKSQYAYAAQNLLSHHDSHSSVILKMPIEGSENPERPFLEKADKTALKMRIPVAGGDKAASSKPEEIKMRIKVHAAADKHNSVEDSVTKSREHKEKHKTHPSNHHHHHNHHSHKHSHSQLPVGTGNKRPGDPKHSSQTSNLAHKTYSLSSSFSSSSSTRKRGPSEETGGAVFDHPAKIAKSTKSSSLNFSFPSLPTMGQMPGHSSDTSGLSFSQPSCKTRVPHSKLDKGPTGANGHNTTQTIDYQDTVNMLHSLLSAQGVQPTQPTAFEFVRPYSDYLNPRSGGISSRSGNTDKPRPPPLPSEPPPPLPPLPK

Consider `CS(=N)(=O)Cc1cc(Nc2ncc(F)c(-c3ccc(F)cc3F)n2)cc(C(F)(F)F)c1` (single isomer, unassigned) [Example 6, 4-(2,4-Difluorophenyl)-5-fluoro-N-{3-[(S-methylsulfonimidoyl)methyl]-5-(trifluoromethyl)phenyl}pyrimidin-2-amine], for which the figures for the IC50 in [1], in series [3] and in [4] were 950 nM, 300 nM and 374 nM, respectively. For the same compound, in [2], the “maximal calculated oral bioavailability (Fmax) based on stability data in rat Hepatocytes” value (“maximal calculated oral bioavailability” below) is 71%. Moreover, the “Selectivity CDK9/CDK2” value in series [5] is recorded as 50.

As to `COc1cc(CS(C)(=O)=NC#N)cc(Nc2ncc(F)c(-c3ccc(F)cc3F)n2)c1` (racemic) [Example 20, (rac)-[(3-{[4-(2,4-Difluorophenyl)-5-fluoropyrimidin-2-yl]amino}-5-methoxybenzyl)(methyl)oxido-λ^6-sulfanylidene]cyanamide], the IC50 in series [1] (Homo sapiens, 96 h) came to 320 nM; in series [6] (Homo sapiens, Caco-2, 96 h), 344 nM; in [7] (Homo sapiens, 96 h) it was 330 nM; in [8] (Homo sapiens, DU-145, 96 h) it was 340 nM; in [9] (Homo sapiens, NCI-H460, 96 h), 384 nM; in series [10] it was 230 nM. For the same compound, the IC50 in series [11] (Mus musculus, B16-F10, 96 h) is 321 nM.

For the compound `CS(=N)(=O)Cc1cc(Nc2ncc(F)c(-c3ccc(F)cc3F)n2)cc(S(F)(F)(F)(F)F)c1` (single isomer, unassigned) [Example 31, 4-(2,4-Difluorophenyl)-5-fluoro-N-{3-[(S-methylsulfonimidoyl)methyl]-5-(pentafluoro-λ^6-sulfanyl)phenyl}pyrimidin-2-amine], the IC50 in series [1] (Homo sapiens, 96 h) came out at 501 nM; in series [3] (Homo sapiens, A2780, 96 h) it was 279 nM; in series [4] (Homo sapiens, MOLM-13, 72 h) it was 281 nM; in series [5] it was 54 nM; in series [12], 7 nM; in series [10] it was 890 nM. Besides, the “Selectivity CDK9/CDK2” value in series [5] is 16.

`CS(=O)(Cc1cc(Nc2ncc(F)c(-c3ccc(F)cc3F)n2)cc(S(F)(F)(F)(F)F)c1)=NC(N)=O` (single isomer, unassigned) [Example 34, 1-{[3-{[4-(2,4-Difluorophenyl)-5-fluoropyrimidin-2-yl]amino}-5-(pentafluoro-λ^6-sulfanyl)benzyl](methyl)oxido-λ^6-sulfanylidene}urea]: the IC50 in series [1] came to 172 nM; in series [3], 99 nM; in series [6] it was 202 nM; in series [4], 39 nM; in [5], 4 nM; in [7] it was 134 nM. Besides, the IC50 in series [12] was found to be 11 nM; in series [8] it was 142 nM; in [9], 317 nM; in series [11] it was 323 nM. The “maximal calculated oral bioavailability” value in series [2] is reported as 90%.

Turning to `CS(=N)(=O)Cc1cc(Nc2ncc(F)c(-c3ccc(F)cc3F)n2)cc(C(F)(F)F)c1` (single isomer, unassigned) [Example 5, 4-(2,4-Difluorophenyl)-5-fluoro-N-{3-[(S-methylsulfonimidoyl)methyl]-5-(trifluoromethyl)phenyl}pyrimidin-2-amine], the IC50 in [1] (Homo sapiens, 96 h) amounted to 840 nM; in series [3] it was 95 nM; in series [4] (Homo sapiens, MOLM-13, 72 h) it was 316 nM. Also, in [2], the “maximal calculated oral bioavailability” value was 77%. Moreover, the “Selectivity CDK9/CDK2” value in series [5] was determined as 72.
